Reference: patent US7067146B2, “Food compositions and methods of preparing the same” (Eritocap Oy, priority 1999, dated 2006)

Tests used:
[1] = Solubility; format: physicochemical
[2] = test system: cholesterol in blood serum; conditions: Merck Index, 12th Edition; cited from earlier work
[3] = biological target: SAH hydrolase (Homo sapiens, UniProt P23526)
Description: It is possible to achieve favourable changes in the blood plasma cholesterol pattern by reducing the molar ratio of total cholesterol/phospholipid ratio and/or changing the phospolipid molar ratio of PC/PE and/or inhibiting enzymatically controlled reactions where PC and PE is directly or indirectly via the SAM/SAH cycle involved. The following theory has been formulated: • Step 1: Total PL and PL (phospholipids) composition may be changed by kinetics of the SAM and SAH cycle. • Step 2: SAM and SAH concentrations are inhibited/stimulated by intervening in the methionine and cysteine metabolism • Step 3: In this metabolism SAH degradation to adenosine and homocysteine is an enzymatic reaction catalysed by SAH hydrolase. By inhibiting partially, not totally, SAH hydrolase, the concentration of SAH will rise affecting the SAM/SAH ratio and step 1 will be executed.
Eritadenine has been tested for use in the above model.

[4] = test system: cholesterol in blood serum; assay: Blood serum cholesterol reduction by eritadenine; format: in vivo, human
Description: As regards the therapeutic action of eritadenine it should be noted that it acts endogenously in a dose-dependent manner and can be used as a functional food component in small doses for reducing the total cholesterol of normal human beings. By contrast, existing methods provide for food components having an exogenous effect on the cholesterol balance and these dietary components therefore have to be used in extremely large doses in comparison to eritadenine. […] The present invention makes it possible to produce a functional food component which acts in a druglike manner influencing human phospholipidic metabolic step sequences, still preserving the true features of a functional food component. As mentioned above, eritadenine has the additive effects of not only dose-dependent, endogenous cholesterol-depression but also therapeutic effects like endogenous linoleic acid formation and blood plasma viscosity reduction.
It acts in a drug-like manner, inhibiting the endogenous synthesis of cholesterol metabolism and the enterohepatic fat circle. d-eritadenine is effective in very low absorbed doses, at 1 ppm+-level, ensuring safety and essential metabolic step preservation.
Thus, the addition of eritadenine, especially d-eritadenine, to an exogenously acting existing functional food will more than double the cholesterol-depressing effect due to enterohepatic and exterohepatic multiplicatory effects. Mathematically consecutive 10% reductions would give […] total reduction, and consecutive 15% reductions would give 28% total reduction, by the present invention, due to the feedback inhibition created by the simultaneous exogenous and endogenous actions of the food components, a greater decrease of the cholesterol level will be achieved. The food compositions according to the present invention may therefore comprise a (conventional) food component having an exterohepatic cholesterol depressing effect. Such a food component can be selected from the group of fibers, chitosan, tocotrienols, plant sterols, stanol esters and sitostanol esters. […]

Chain of SAH hydrolase (P23526 whole entry): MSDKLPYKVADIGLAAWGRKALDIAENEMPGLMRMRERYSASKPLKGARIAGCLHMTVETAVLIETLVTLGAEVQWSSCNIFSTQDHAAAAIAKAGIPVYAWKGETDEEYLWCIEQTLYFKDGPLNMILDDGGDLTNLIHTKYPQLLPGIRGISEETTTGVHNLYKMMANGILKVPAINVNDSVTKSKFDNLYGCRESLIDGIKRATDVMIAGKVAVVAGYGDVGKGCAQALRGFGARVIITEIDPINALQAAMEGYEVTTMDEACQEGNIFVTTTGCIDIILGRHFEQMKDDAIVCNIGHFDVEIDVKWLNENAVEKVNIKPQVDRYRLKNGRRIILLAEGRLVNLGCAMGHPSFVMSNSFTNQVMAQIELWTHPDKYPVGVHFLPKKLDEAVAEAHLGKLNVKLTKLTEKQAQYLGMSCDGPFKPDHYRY

solubility in fats [1]	dose needed for SAH hydrolase inhibition [3]	extent of SAH hydrolase inhibition [3]	speed of SAH hydrolase inhibition [3]	Compound	effect on concentration of cholesterol in blood serum [2]	reduction of cholesterol ([4]; 5 to 50 mg as dose response, depending on the dietary cholesterol amount) [%]	effective absorbed dose level ([4]; absorbed dose) [ppm]	relative efficiency among eritadenine isomers ([4]; compared with l-eritadenine (2S,3S) and threo isomers)
soluble in fats				Nc1ncnc2c1ncn2C[C@@H](O)[C@@H](O)C(=O)O [Eritadenine]	capable of reducing the concentration of cholesterol in blood serum			
	inhibits already in small doses	inhibits partially, no total blocking	rapid	Nc1ncnc2c1ncn2C[C@@H](O)[C@@H](O)C(=O)O [d-eritadenine, 2(R), 3(R)-dihydroxy-4-(9-adenyl)butyric acid]		> 20	≥ 1	most efficient
